Results taken from ChEMBL document CHEMBL1201862, “PubChem BioAssay data set” (2004).
The source made the active and inactive calls.

How the values were obtained:
[1] = target: T1, Delta-type opioid receptor (Homo sapiens, UniProt P41143); assay: HTS Image-Based Screen for Agonists of the DOR Receptor. [Related pubchem assays (depositor defined):AID1777, AID1786, AID2133]; format: functional
HEK293 [2] = assay: cells; settings: Homo sapiens
[3] = Shn3 3'UTR reporter inhibitors, dose response, cell-based, Clone20 osteoblasts, firefly luciferase, cherry-picked (AID 624132); format: functional;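 further: firefly luciferase luminescence from reporter carrying the Shn3 3'UTR in osteoblasts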
[4] = microbe, parasite or virus in culture; format: functional; settings: Mycobacterium tuberculosis
Beta-galactosidase = Beta-galactosidase (Escherichia coli, UniProt Q8VNN2); format: functional
HEK293 [5] = assay: cells; settings: Homo sapiens; remark: listed apart in the source
[6] = target: T2, Kappa-type opioid receptor (Homo sapiens, UniProt P41145); format: functional
[7] = target: T2, Kappa-type opioid receptor; format: functional; remark: listed apart in the source
[8] = HepG2 cell cytotoxicity, dose response, cytotoxicity control for Shn3 inhibitor project, CellTiter-Glo, cherry-picked (AID 624134); format: functional, cell-based
[9] = target: T3, Short transient receptor potential channel 4 (Mus musculus, UniProt Q9QUQ5); assay: mouse TRPC4 channel activators, dose response, cell-based, HEK293 TRPC4/mu-opioid, Fluo-4 calcium (AID 434937); format: functional
T3 sequence (Q9QUQ5 whole entry): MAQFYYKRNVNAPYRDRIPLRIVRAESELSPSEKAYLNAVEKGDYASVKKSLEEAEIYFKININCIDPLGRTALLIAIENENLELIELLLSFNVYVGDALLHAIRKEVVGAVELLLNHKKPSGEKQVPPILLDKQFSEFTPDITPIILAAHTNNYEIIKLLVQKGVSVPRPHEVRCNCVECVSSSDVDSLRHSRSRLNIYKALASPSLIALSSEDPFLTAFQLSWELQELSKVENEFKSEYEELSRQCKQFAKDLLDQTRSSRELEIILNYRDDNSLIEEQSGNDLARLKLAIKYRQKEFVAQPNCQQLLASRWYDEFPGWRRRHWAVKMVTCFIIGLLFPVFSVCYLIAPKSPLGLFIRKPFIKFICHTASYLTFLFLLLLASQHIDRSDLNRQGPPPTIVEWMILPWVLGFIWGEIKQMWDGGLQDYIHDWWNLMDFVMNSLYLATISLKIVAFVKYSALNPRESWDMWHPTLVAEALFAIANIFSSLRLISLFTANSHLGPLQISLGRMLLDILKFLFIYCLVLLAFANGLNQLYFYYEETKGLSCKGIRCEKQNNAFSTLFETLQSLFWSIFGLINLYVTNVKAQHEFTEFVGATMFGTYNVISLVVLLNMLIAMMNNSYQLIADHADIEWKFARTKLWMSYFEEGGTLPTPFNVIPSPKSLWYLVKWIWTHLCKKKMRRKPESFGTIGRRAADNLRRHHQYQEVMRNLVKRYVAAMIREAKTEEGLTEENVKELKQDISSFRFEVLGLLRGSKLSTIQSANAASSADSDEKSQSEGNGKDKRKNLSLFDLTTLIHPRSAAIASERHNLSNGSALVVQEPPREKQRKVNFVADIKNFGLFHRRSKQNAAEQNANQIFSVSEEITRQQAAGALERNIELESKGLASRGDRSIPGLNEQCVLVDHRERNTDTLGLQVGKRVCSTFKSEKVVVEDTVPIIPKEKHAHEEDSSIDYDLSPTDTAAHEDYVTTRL

[10] = target: T1, Delta-type opioid receptor; assay: HTS Image-Based Screen for Antagonists of the DOR Receptor. [Related pubchem assays (depositor defined):AID1777, AID1785, AID1786, AID2133]; format: functional
[11] = HEp-2 cell cytotoxicity, dose response, cytotoxicity control for RSV inhibitor project, HTS (AID 2410); format: functional; settings: human respiratory syncytial virus
[12] = target: T4, Histone-lysine N-methyltransferase NSD2 (Homo sapiens, UniProt O96028); format: biochemical
T4 sequence (O96028 whole entry): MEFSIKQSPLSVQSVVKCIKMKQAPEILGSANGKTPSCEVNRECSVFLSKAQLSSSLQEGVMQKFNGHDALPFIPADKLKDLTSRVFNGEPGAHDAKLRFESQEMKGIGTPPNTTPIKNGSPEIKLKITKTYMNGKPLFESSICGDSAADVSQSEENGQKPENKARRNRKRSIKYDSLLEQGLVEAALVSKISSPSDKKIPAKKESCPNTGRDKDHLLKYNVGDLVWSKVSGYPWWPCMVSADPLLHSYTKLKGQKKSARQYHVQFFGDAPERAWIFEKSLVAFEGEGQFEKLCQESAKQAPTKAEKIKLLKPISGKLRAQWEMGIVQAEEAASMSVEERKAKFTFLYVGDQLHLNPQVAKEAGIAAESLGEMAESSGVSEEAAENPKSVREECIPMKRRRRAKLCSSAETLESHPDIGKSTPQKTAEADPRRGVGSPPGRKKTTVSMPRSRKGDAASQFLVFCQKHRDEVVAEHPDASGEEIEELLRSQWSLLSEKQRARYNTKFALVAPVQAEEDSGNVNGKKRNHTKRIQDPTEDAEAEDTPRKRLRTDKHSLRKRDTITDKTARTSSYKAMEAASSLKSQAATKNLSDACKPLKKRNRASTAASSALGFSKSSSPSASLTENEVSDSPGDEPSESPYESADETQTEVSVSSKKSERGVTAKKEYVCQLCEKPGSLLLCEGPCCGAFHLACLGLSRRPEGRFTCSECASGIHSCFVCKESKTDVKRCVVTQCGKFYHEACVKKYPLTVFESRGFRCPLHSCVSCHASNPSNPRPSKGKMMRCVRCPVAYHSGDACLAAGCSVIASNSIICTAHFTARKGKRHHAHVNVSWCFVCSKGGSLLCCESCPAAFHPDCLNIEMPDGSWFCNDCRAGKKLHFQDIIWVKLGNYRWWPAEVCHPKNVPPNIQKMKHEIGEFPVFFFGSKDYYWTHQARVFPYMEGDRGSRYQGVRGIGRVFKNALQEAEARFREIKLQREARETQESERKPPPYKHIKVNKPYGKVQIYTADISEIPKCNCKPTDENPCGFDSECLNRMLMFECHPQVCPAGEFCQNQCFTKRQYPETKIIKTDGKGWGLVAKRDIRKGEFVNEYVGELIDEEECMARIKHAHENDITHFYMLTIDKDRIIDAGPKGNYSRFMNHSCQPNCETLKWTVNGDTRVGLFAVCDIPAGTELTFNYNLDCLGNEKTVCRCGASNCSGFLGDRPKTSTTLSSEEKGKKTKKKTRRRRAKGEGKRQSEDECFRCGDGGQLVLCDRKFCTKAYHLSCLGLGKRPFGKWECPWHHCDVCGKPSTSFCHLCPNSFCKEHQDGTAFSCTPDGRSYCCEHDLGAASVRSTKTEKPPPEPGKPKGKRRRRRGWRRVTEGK

Mu-type opioid receptor = Mu-type opioid receptor (Homo sapiens, UniProt P35372); assay: HTS Image-Based Screen for Agonists of the MOR Receptor. [Related pubchem assays (depositor defined):AID1777, AID1785, AID1786, AID2133]; format: functional;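 further: imaging of beta-arrestin GFP recruitment into spots after receptor activation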
HeLa = assay: HeLa cell cytotoxicity, dose response, cytotoxicity control for MITF activator project, CellTiter-Glo luminescence, cherry-pick samples (AID 540259); format: functional, cell-based; settings: Homo sapiens
Vero [13] = assay: cells; format: functional, cell-based; settings: Chlorocebus sabaeus
HEK293 [14] = assay: inhibitors of LMP1-driven NF-kB reporter, dose response, cell-based, HEK293, luciferase, cherry-pick (AID 588343); format: functional; settings: Homo sapiens
Fatty acid synthase [15] = target: T5, Fatty acid synthase (Homo sapiens, UniProt P49327); assay: FAS thioesterase domain inhibitors, dose response, biochemical, endpoint fluorescence intensity, uHTS hits (AID 624327); format: functional;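 further: fluorescence from hydrolysis of an O-methyl fluorescein acyl ester substrate by the enzyme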
Fatty acid synthase [16] = target: T5, Fatty acid synthase; assay: FAS thioesterase domain inhibitors, dose response, biochemical, kinetic fluorescence intensity (AID 624326); format: functional;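 further: rate of fluorescence rise from hydrolysis of a fluorogenic O-methyl fluorescein ester substrate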
Vero [17] = assay: cells; format: functional; settings: Chlorocebus sabaeus
Escherichia coli = assay: microbe, parasite or virus in culture
[18] = growth suppression of beta-catenin-knockout colon cells, dose response, cell-based, HCT116, human colon tumor (AID 1045); format: functional;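 further: HCT116 colon tumor cells with beta catenin knocked out; cells exposed to compound for 60 hours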
[19] = growth suppression of PTEN-null colon cells, dose response, cell-based, HCT116 PTEN knockout (AID 1047); format: functional;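 further: HCT116 colon tumor cells with PTEN knocked out; cells exposed to compound for 60 hours before readout; potency for loss of cell viability measured by luminescence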

T1 sequence (P41143 whole entry): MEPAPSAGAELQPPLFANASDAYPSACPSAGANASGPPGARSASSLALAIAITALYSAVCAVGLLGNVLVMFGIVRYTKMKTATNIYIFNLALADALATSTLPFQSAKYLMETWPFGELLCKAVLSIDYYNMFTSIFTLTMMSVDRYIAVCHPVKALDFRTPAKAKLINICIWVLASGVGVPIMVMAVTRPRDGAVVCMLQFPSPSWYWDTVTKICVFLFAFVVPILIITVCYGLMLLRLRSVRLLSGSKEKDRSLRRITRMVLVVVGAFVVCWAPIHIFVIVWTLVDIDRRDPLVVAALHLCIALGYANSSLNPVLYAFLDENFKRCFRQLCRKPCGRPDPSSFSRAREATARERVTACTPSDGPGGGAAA
T5 sequence (P49327 whole entry, the tested form may be a part): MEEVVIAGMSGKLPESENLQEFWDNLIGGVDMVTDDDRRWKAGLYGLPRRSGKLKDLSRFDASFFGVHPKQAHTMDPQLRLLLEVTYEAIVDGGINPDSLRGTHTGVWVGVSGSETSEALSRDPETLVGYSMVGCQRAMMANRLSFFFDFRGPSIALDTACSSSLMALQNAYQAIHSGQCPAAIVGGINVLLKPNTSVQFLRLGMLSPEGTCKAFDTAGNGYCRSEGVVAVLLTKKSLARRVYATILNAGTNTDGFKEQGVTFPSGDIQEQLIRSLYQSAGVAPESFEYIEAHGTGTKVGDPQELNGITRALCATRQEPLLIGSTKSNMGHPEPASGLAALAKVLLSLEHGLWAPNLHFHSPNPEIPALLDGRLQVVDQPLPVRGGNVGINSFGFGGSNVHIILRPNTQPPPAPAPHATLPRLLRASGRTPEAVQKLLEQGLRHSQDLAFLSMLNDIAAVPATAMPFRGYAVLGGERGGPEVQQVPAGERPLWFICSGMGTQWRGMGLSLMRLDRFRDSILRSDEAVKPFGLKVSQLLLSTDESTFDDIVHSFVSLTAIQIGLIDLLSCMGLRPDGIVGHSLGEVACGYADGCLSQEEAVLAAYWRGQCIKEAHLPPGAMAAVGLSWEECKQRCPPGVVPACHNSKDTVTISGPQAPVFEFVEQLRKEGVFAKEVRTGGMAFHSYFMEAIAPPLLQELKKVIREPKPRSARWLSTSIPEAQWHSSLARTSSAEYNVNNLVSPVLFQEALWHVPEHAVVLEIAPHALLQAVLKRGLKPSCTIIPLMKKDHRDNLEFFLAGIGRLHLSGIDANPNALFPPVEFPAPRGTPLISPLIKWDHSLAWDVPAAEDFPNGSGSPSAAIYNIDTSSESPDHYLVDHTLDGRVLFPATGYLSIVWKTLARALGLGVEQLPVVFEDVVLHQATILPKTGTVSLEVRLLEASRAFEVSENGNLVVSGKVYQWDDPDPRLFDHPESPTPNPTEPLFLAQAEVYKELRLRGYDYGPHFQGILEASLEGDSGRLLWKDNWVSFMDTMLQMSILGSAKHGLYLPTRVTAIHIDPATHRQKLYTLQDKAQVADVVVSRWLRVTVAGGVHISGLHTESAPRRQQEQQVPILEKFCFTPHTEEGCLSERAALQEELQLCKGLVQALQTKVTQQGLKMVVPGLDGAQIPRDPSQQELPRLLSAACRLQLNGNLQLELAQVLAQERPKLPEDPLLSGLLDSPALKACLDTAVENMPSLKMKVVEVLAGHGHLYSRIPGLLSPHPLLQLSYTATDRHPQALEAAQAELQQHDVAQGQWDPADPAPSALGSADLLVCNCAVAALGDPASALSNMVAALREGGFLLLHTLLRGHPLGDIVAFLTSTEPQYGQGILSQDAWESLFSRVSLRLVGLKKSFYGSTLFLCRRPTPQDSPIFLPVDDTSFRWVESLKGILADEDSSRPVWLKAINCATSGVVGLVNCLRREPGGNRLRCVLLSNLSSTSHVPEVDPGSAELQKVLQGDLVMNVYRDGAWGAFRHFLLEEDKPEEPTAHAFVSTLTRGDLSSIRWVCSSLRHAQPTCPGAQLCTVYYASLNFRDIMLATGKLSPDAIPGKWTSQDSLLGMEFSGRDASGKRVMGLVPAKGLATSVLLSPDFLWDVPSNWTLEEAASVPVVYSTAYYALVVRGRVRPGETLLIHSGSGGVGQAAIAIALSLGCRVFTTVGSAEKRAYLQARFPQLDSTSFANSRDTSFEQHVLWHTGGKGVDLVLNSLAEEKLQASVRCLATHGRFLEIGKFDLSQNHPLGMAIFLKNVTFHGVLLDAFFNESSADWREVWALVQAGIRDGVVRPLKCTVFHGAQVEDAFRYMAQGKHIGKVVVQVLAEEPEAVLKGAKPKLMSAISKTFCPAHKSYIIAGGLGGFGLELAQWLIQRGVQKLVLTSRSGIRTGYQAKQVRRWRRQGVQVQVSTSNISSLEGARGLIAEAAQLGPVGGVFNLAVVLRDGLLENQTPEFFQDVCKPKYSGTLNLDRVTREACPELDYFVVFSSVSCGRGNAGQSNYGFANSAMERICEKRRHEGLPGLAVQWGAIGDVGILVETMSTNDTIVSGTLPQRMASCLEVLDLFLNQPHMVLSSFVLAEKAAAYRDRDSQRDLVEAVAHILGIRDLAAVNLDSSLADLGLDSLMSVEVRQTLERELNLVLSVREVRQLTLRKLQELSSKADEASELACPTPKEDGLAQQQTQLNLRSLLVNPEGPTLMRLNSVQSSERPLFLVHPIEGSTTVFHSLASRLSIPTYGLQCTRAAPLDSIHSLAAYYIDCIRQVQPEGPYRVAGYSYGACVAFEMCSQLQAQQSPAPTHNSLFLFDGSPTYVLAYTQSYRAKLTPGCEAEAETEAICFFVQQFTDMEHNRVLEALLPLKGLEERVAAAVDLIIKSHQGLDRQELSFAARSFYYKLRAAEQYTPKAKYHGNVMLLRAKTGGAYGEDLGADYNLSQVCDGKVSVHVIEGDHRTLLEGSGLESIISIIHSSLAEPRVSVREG
T2 sequence (P41145 whole entry): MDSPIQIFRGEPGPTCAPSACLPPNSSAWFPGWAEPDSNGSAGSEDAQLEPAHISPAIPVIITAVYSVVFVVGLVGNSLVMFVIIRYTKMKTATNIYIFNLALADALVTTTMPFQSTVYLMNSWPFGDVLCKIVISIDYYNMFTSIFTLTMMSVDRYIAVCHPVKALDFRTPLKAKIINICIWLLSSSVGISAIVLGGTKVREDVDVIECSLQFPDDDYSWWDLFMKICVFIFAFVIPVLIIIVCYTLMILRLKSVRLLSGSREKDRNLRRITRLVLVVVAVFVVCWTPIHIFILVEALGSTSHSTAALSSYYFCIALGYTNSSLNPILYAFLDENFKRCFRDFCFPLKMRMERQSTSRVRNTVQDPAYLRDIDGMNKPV
Beta-galactosidase, sequence (Q8VNN2 whole entry): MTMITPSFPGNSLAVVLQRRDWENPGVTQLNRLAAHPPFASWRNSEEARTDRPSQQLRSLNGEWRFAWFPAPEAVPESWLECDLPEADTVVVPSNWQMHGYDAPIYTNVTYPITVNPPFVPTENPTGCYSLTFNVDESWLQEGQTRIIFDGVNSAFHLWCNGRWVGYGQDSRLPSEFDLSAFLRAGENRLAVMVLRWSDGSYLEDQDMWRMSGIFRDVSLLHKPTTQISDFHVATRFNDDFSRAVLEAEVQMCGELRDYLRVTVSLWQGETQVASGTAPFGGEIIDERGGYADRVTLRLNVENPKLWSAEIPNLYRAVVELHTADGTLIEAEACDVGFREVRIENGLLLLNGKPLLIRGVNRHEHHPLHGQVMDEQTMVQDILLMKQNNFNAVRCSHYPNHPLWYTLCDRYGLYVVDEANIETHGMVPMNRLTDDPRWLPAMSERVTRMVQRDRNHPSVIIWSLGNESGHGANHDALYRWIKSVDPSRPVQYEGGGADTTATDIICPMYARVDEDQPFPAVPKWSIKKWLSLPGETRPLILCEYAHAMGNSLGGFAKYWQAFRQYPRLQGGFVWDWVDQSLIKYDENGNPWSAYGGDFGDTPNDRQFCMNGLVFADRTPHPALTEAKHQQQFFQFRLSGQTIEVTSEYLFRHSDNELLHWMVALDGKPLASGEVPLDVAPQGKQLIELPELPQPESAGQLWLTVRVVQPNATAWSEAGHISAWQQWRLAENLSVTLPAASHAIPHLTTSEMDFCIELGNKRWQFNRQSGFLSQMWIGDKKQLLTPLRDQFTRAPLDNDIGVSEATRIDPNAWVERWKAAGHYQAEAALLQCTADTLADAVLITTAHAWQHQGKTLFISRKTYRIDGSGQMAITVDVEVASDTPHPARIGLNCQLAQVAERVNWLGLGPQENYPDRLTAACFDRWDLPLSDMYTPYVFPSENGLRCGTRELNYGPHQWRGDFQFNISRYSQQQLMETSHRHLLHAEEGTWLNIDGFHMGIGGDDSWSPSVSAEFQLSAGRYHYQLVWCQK
Mu-type opioid receptor, sequence (P35372 whole entry): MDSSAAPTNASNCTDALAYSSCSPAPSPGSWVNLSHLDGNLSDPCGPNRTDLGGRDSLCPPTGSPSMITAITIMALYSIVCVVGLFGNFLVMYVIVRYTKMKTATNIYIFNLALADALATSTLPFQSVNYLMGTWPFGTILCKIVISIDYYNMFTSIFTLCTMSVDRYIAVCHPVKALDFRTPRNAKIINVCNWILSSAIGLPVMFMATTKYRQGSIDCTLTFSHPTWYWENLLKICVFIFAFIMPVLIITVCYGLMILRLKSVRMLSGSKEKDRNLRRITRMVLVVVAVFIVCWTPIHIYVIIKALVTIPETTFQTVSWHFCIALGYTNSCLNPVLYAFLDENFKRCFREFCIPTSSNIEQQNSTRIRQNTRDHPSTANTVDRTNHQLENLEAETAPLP

SMILES: COc1cc(OC)c(OC)cc1CCC(C)NCCC(c1ccccc1)c1ccccc1 (stereo not drawn)
- EC50 [1]: > 32 µM (inactive)
- EC50 (HEK293 [2]): > 59.6 µM (inactive)
- AC50 [3]: 3.99 µM (active)
- CC50 [4]: 13.9 µM (active)
- EC50 (Beta-galactosidase): > 31.5 µM (inactive)
- EC50 (HEK293 [5]): > 59.6 µM (inactive)
- IC50 [6]: > 32 µM
- IC50 [7]: 10.9 µM (active)
- AC50 [8]: 8.98 µM (active)
- EC50 [9]: 6.68 µM (active)
- IC50 [10]: 24.4 µM (inactive)
- CC50 [11]: 14.6 µM (active)
- AC50 [12]: 15.8 µM (active)
- EC50 (Mu-type opioid receptor): > 32 µM (inactive)

SMILES: CC(C)Cc1cc(C(=O)Nc2ccc(Br)cc2)no1
- AC50 (HeLa): 113 µM (active)

SMILES: O=C(NC(Cc1c[nH]c2ccccc12)C(=O)Nc1ccc(F)c([N+](=O)[O-])c1)c1cccs1 (stereo not drawn)
- IC50 (Vero [13]): 22.4 µM (active)
- AC50 (HEK293 [14]): 1.37 µM (active)
- IC50 (Fatty acid synthase [15]): 7.53 µM (active)
- IC50 (cells): 10.2 µM (active)
- CC50 [11]: 13.1 µM (active)
- IC50 (Fatty acid synthase [16]): 3.78 µM (active)
- CC50 (Vero [17]): 18.5 µM (active)

SMILES: CCc1ccc(NC(=O)C(S)=NC2CCCCC2)cc1
- AC50 (HeLa): 182 µM (active)

SMILES: O=C(c1cccc(COc2cccc3ccccc23)c1)N1CCCC1
- IC50 (Vero [13]): > 25 µM (active)
- IC50 (cells): > 50 µM (active)
- CC50 [11]: 21.3 µM (active)
- CC50 (Vero [17]): > 25 µM (active)

SMILES: Cc1ccccc1OCC(=O)Nc1ccc(S(=O)(=O)Nc2onc(C)c2C)cc1
- AC50 (Escherichia coli): 39.2 µM (active)

SMILES: COc1cccc(CN(C(=O)Cc2c[nH]c3ccccc23)C(C(=O)NC2CCCCC2)c2ccc(C)o2)c1 (stereo not drawn)
- EC50 [18]: 22.3 µM (active)
- AC50 (Escherichia coli): 44.4 µM (active)
- EC50 [19]: 19.9 µM (active)

SMILES: Fc1ccccc1CSc1ncnc2c1ncn2C1CCCO1 (stereo not drawn)
- IC50 (Vero [13]): 8.43 µM (active)

SMILES: CC(C)(C)c1nn2cnnc2n(/N=C/c2cccc3ccccc23)c1=O
- AC50 (Escherichia coli): 38.5 µM (active)
